Measured values reported in ChEMBL document CHEMBL6134867, “Design and Synthesis of FR-β Targeting Chimeric Molecules for Reprogramming Tumor-Associated Macrophages Using 6-Substituted Pyrrolo[2,3-d]pyrimidines as Targeting Ligands” (J Med Chem, 2025).
Calls of active or inactive are those of the source. The calls are words filed in the database; no cut-off is given here.

Columns and labels:
[1] = Stability of the compound in mouse plasma at 5 uM and measured at 37 degC and for up to 12 hrs by HPLC analysis; assay type: ADME, cell-free; details: read-out: Stability
[2] = Stability of the compound in PBS measured at 4 degC and for 15 days; assay type: physicochemical; details: time 15 day, read-out: Stability
[3] = Prodrug release assessed as IMDQ-SH formation in presence of 10 mM GSH and measured within 1 hr by HPLC analysis; assay type: ADME
[4] = Prodrug release assessed as IMDQ formation in presence of 10 mM GSH and measured after 1 to 8 hrs by HPLC analysis; assay type: ADME; details: time 1-8 hrs
[5] = system: BMDM; assay: Induction of macrophage repolarization in FR-beta expressing IL-4 differentiated M2 phenotype mouse BMDM cells assessed as reprogramming to M1 phenotype by measuring upregulation of TLR7 expression at 10 nM incubated for 24 hrs by western blot analysis; assay type: functional, cell-based
[6] = system: BMDM; assay: Induction of macrophage repolarization in FR-beta expressing IL-4 differentiated M2 phenotype mouse BMDM cells assessed as reprogramming to M1 phenotype by measuring upregulation of MyD88 expression at 10 nM incubated for 24 hrs by western blot analysis; assay type: functional, cell-based
[7] = system: BMDM; assay: Induction of macrophage repolarization in FR-beta expressing IL-4 differentiated M2 phenotype mouse BMDM cells assessed as reprogramming to M1 phenotype by measuring downregulation of CD206 expression at 10 nM incubated for 24 hrs by western blot analysis; assay type: functional, cell-based
[8] = system: BMDM; assay: Induction of macrophage repolarization in FR-beta expressing IL-4 differentiated M2 phenotype mouse BMDM cells assessed as reprogramming to M1 phenotype by measuring downregulation of Arg1 expression at 10 nM incubated for 24 hrs by western blot analysis; assay type: functional, cell-based
[9] = system: BMDM; assay: Induction of macrophage repolarization in FR-beta expressing IL-4 differentiated M2 phenotype mouse BMDM cells assessed as reprogramming to M1 phenotype by measuring downregulation of IL-10 level at 10 nM incubated for 24 hrs by ELISA; assay type: functional, cell-based
[10] = system: BMDM; assay: Induction of macrophage repolarization in FR-beta expressing IL-4 differentiated M2 phenotype mouse BMDM cells assessed as reprogramming to M1 phenotype by measuring upregulation of IL-6 level at 10 nM incubated for 24 hrs by ELISA; assay type: functional, cell-based
[11] = system: BMDM; assay: Induction of macrophage repolarization in FR-beta expressing IL-4 differentiated M2 phenotype mouse BMDM cells assessed as reprogramming to M1 phenotype by measuring upregulation of iNOS expression at 10 nM incubated for 24 hrs by western blot analysis; assay type: functional, cell-based
[12] = system: BMDM; assay: Induction of macrophage repolarization in FR-beta expressing IL-4 differentiated M2 phenotype mouse BMDM cells assessed as reprogramming to M1 phenotype by measuring TNF-alpha level at 10 nM incubated for 24 hrs by ELISA; assay type: functional, cell-based
[13] = system: BMDM; assay: Induction of macrophage repolarization in FR-beta expressing IL-4 differentiated M2 phenotype mouse BMDM cells assessed as reprogramming to M1 phenotype by measuring upregulation of TLR7 mRNA expression at 10 nM incubated for 24 hrs by RT-qPCR analysis; assay type: functional, cell-based
[14] = system: BMDM; assay: Induction of macrophage repolarization in FR-beta expressing IL-4 differentiated M2 phenotype mouse BMDM cells assessed as reprogramming to M1 phenotype by measuring downregulation of CD206 mRNA expression at 10 nM incubated for 24 hrs by RT-qPCR analysis; assay type: functional, cell-based
[15] = system: BMDM; assay: Induction of macrophage repolarization in FR-beta expressing IL-4 differentiated M2 phenotype mouse BMDM cells assessed as reprogramming to M1 phenotype by measuring downregulation of Arg1 mRNA expression at 10 nM incubated for 24 hrs by RT-qPCR analysis; assay type: functional, cell-based
[16] = system: BMDM; assay: Induction of macrophage repolarization in FR-beta expressing IL-4 differentiated M2 phenotype mouse BMDM cells assessed as reprogramming to M1 phenotype by measuring downregulation of IL-10 mRNA expression at 10 nM incubated for 24 hrs by RT-qPCR analysis; assay type: functional, cell-based
[17] = system: BMDM; assay: Induction of macrophage repolarization in FR-beta expressing IL-4 differentiated M2 phenotype mouse BMDM cells assessed as reprogramming to M1 phenotype by measuring upregulation of IL-6 mRNA expression at 10 nM incubated for 24 hrs by RT-qPCR analysis; assay type: functional, cell-based
[18] = system: BMDM; assay: Induction of macrophage repolarization in FR-beta expressing IL-4 differentiated M2 phenotype mouse BMDM cells assessed as reprogramming to M1 phenotype by measuring upregulation of iNOS mRNA expression at 10 nM incubated for 24 hrs by RT-qPCR analysis; assay type: functional, cell-based
[19] = system: BMDM; assay: Induction of macrophage repolarization in FR-beta expressing IL-4 differentiated M2 phenotype mouse BMDM cells assessed as reprogramming to M1 phenotype by measuring TNF-alpha mRNA expression at 10 nM incubated for 24 hrs by RT-qPCR analysis; assay type: functional, cell-based
[20] = system: 4T1; assay: Cytotoxicity against mouse 4T1 cells assessed as reduction in cell viability incubated for 24 hrs by CCK-8 assay; assay type: toxicity, cell-based; details: 4t1, 24 h
[21] = Cytotoxicity against mouse BMDM cells assessed as reduction in cell viability incubated for 24 hrs by CCK-8 assay; assay type: toxicity, cell-based
[22] = system: HUVEC; assay: Cytotoxicity against human HUVEC cells assessed as reduction in cell viability incubated for 24 hrs by CCK-8 assay; assay type: toxicity, cell-based
[23] = system: 4T1; assay: Antitumor activity against mouse 4T1 cells xenografted in BALB/c mouse assessed as inhibition of tumor growth at 1 mg/kg, iv qd for 14 days and measured every day by digital caliper analysis; assay type: functional, organism-based; details: time 14.0 day
[24] = Toxicity against BALB/c mouse xenografted with mouse 4T1 cells assessed as effect on body weight at 1 mg/kg, iv qd for 14 days and measured every day; assay type: organism-based; details: in vivo, 336 h, time 14 day
[25] = system: 4T1; assay: Antitumor activity against mouse 4T1 cells xenografted in BALB/c mouse assessed as lifespan of animal's survival at 1 mg/kg, iv qd for 14 days; assay type: functional; details: time 14 day
[26] = system: Mus musculus; assay: In vivo repolarization of macrophages from M2 phenotype to M1 phenotype in BALB/c mouse xenografted with mouse 4T1 cells assessed as increase in M1 (F4/80+CD11b+CD86+) to M2 (F4/80+CD11b+CD206+) macrophage ratio in tumor at 1 mg/kg, iv qd for 14 days by flow cytometry; assay type: functional, organism-based; details: time 14.0 day
[27] = system: Mus musculus; assay: In vivo transition from anti-inflammatory to pro-inflammatory phenotypes in BALB/c mouse xenografted with mouse 4T1 cells assessed as decrease in proportion of Ly6C+ and Ly6G+ cells within CD45+ population at 1 mg/kg, iv qd for 14 days by flow cytometry; assay type: functional, organism-based; details: time 14.0 day
[28] = system: Mus musculus; assay: In vivo transition from anti-inflammatory to pro-inflammatory phenotypes in BALB/c mouse xenografted with mouse 4T1 cells assessed as upregulation in proportion of CD8+ cells at 1 mg/kg, iv qd for 14 days by flow cytometry; assay type: functional, organism-based; details: time 14.0 day
[29] = system: Mus musculus; assay: In vivo transition from anti-inflammatory to pro-inflammatory phenotypes in BALB/c mouse xenografted with mouse 4T1 cells assessed as CD4+ cells population at 1 mg/kg, iv qd for 14 days by flow cytometry; assay type: functional, organism-based; details: time 14.0 day
[30] = Toxicity against BALB/c mouse xenografted with mouse 4T1 cells assessed as pathological changes in heart at 1 mg/kg, iv qd for 14 days by Hematoxylin-Eosin staining based analysis; assay type: organism-based; details: in vivo, 336 h, time 14 day
[31] = Toxicity against BALB/c mouse xenografted with mouse 4T1 cells assessed as pathological changes in liver at 1 mg/kg, iv qd for 14 days by Hematoxylin-Eosin staining based analysis; assay type: organism-based; details: in vivo, 336 h, time 14 day
[32] = Toxicity against BALB/c mouse xenografted with mouse 4T1 cells assessed as pathological changes in spleen at 1 mg/kg, iv qd for 14 days by Hematoxylin-Eosin staining based analysis; assay type: organism-based; details: in vivo, 336 h, time 14 day
[33] = Toxicity against BALB/c mouse xenografted with mouse 4T1 cells assessed as pathological changes in kidney at 1 mg/kg, iv qd for 14 days by Hematoxylin-Eosin staining based analysis; assay type: organism-based; details: in vivo, 336 h, time 14 day
[34] = Toxicity against BALB/c mouse xenografted with mouse 4T1 cells assessed as heightened inflammatory response in lung at 1 mg/kg, iv qd for 14 days by Hematoxylin-Eosin staining based analysis; assay type: organism-based; details: in vivo, 336 h, time 14 day
[35] = Toxicity against BALB/c mouse assessed as increase in IL-6 level in plasma at 20 ug, iv measured after 2 hrs by ELISA; assay type: organism-based; details: in vivo, dose 20 µg
[36] = Toxicity against BALB/c mouse assessed as increase in TNF-alpha level in plasma at 20 ug, iv measured after 2 hrs by ELISA; assay type: organism-based; details: in vivo, dose 20 µg
[37] = system: 4T1; assay: Cytotoxicity against mouse 4T1 cells assessed as reduction in cell viability at >10 uM incubated for 24 hrs by CCK-8 assay; assay type: toxicity, cell-based; details: 4t1, 24 h
[38] = Cytotoxicity against mouse BMDM cells assessed as reduction in cell viability at >10 uM incubated for 24 hrs by CCK-8 assay; assay type: toxicity, cell-based
[39] = system: HUVEC; assay: Cytotoxicity against human HUVEC cells assessed as reduction in cell viability at >10 uM incubated for 24 hrs by CCK-8 assay; assay type: toxicity, cell-based
[40] = system: 4T1; assay: Antitumor activity against mouse 4T1 cells xenografted in BALB/c mouse assessed as inhibition of tumor growth at 0.333 mg/kg, iv qd for 14 days and measured every day by digital caliper analysis; assay type: functional, organism-based; details: time 14.0 day
[41] = Toxicity against BALB/c mouse xenografted with mouse 4T1 cells assessed as decrease in body weight at 0.333 mg/kg, iv qd for 14 days and measured every day; assay type: organism-based; details: in vivo, 336 h, time 14 day
[42] = system: 4T1; assay: Antitumor activity against mouse 4T1 cells xenografted in BALB/c mouse assessed as lifespan of animal's survival at 0.333 mg/kg, iv qd for 14 days; assay type: functional; details: time 14 day
[43] = system: Mus musculus; assay: In vivo repolarization of macrophages from M2 phenotype to M1 phenotype in BALB/c mouse xenografted with mouse 4T1 cells assessed as increase in M1 (F4/80+CD11b+CD86+) to M2 (F4/80+CD11b+CD206+) macrophage ratio in tumor at 0.333 mg/kg, iv qd for 14 days by flow cytometry; assay type: functional, organism-based; details: time 14.0 day
[44] = Toxicity against BALB/c mouse xenografted with mouse 4T1 cells assessed as heightened inflammatory response in lung at 0.333 mg/kg, iv qd for 14 days by Hematoxylin-Eosin staining based analysis; assay type: organism-based; details: in vivo, 336 h, time 14 day

Structure (SMILES)	Activity [5]	Activity [6]	Activity [7]	Activity [8]	Activity [9]	Activity [10]	Activity [11]	Activity [12]	Activity [13]	Activity [14]	Activity [15]	Activity [16]	Activity [17]	Activity [18]	Activity [19]	Activity [35]	Activity [36]	also measured
CCCCc1nc2c(N)nc3ccccc3c2n1Cc1ccc(CNC(=O)OCCSSC[C@H](NC(=O)CC[C@H](NC(=O)c2ccc(CCCCc3cc4c(=O)[nH]c(N)nc4[nH]3)cc2)C(=O)O)C(=O)O)cc1	Active	Active	Active; More Pronounced Effect Compared To Fgt-2,3 Observed	Active; More Pronounced Effect Compared To Fgt-2,3 Observed	Active; More Pronounced Effect Compared To Fgt-2 Observed	Active; More Pronounced Effect Compared To Fgt-2 Observed	Active; More Pronounced Effect Compared To Fgt-2,3 Observed	inactive	Active	Active; More Pronounced Effect Compared To Fgt-2,3 Observed	Active; More Pronounced Effect Compared To Fgt-2,3 Observed	Active; More Pronounced Effect Compared To Fgt-2 Observed	Active; More Pronounced Effect Compared To Fgt-2 Observed	Active; More Pronounced Effect Compared To Fgt-2,3 Observed	inactive	Non-toxic	Non-toxic	remaining at 12 h, 5 µM [1]: 95%; remaining at 360 h [2]: > 95%; Drug metabolism [3]: metabolite_detected; Drug metabolism [4]: metabolite_detected; Activity [20]: Non-toxic; Activity [21]: Non-toxic; Activity [22]: Non-toxic; Activity [23]: Active; Most Pronounced Effect Compared To Fgt-1,2,3 Observed; Activity [24]: Non-toxic; Survival [25]: 35 days; Activity [26]: Active; Activity [27]: Active; Activity [28]: Active; Activity [29]: inactive; Activity [30]: Non-toxic; Activity [31]: Non-toxic; Activity [32]: Non-toxic; Activity [33]: Non-toxic; Activity [34]: Non-toxic
CCCCc1nc2c(N)nc3ccccc3c2n1Cc1ccc(CN)cc1	Active	Active	Active	Active	Active	Active	Active	inactive	Active	Active	Active	Active	Active	Active	inactive	Toxic	Toxic	Activity [37]: Toxic; Activity [38]: Toxic; Activity [39]: Toxic; Activity [40]: Active; Diminished Antitumor Efficacy Compared To Fgt-1 To 4 Observed; Activity [41]: Toxic; Survival [42]: 27 days; Activity [43]: inactive; Activity [44]: Toxic
